Source: publication PMC10744608, “Simplified Synthesis of Renieramycin T Derivatives to Target Cancer Stem Cells via β-Catenin Proteasomal Degradation in Human Lung Cancer” (Marine Drugs, 2023)

Experiments:
[1] = tested on: β-catenin in A549, H292, and H23 cells; assay: Immunofluorescence of β-catenin; type: cell-based, human; settings: 24 h; DH_32 0–100 nM, RT 25 nM
Procedure: A549, H23, and H292 NSCLC cells were seeded at a concentration of 1 × 10^4 cells per well in 96-well plates. The cells were exposed to different concentrations of DH_32 (0, 25, 50, and 100 nM) for 24 h, after which the medium was removed. Following that, the cells were subjected to fixation with 4% paraformaldehyde for 15 min. The cells were permeabilization with 0.5% Triton-X for 5 min, followed by the blocking of non-specific proteins with 10% FBS in 0.1% Triton-X PBS for 1 h at room temperature. The cells were exposed to a 1:400 dilution of primary antibodies (CD133, CD44, ALDH1A1, OCT4, NANOG, SOX2, and β-catenin) and incubated at 4 °C overnight. On the subsequent day, the cells were treated with a 1:500 dilution of the following secondary antibodies: Alexa Fluor 594-conjugated goat anti-rabbit IgG (H+L) (Invitrogen) and Alexa Fluor 488-conjugated goat anti-mouse IgG (H+L) (Invitrogen). Simultaneously, the localization of nuclei was stained with Hoechst 33342 for 1 h at room temperature. The cells were rinsed with PBS and then covered with 50% glycerol. The images were captured by a fluorescence microscope (Olympus IX 51 with DP70; Olympus America Inc., Center valley, PA, USA). The fluorescence intensity was measured by Image J software. RT acted as the positive control for this experiment.

[2] = tested on: human dermal papilla cells (DP); assay: MTT cell viability assay, normal cells; type: cell-based; settings: for IC50: DP normal cells, 24 h treatment, MTT
A549 cells [3] = assay: Colony formation assay; type: cell-based, human; settings: A549, 25 nM, 24 h treatment then 7 days growth
Procedure: (§1) A clonogenic or colony formation assay was utilized to explore the capability of cancer cells to proliferate from single cells and form tumor colonies in response to DH_32 treatment. A single-cell suspension of NSCLC cells (A549, H23, and H292) was seeded at a density of 250 cells per well in a 6-well plate and permitted to adhere for 12 h. The cells were treated to different concentrations of DH_32 (0, 25, 50, and 100 nM) for a duration of 24 h. Subsequently, the medium containing the drug was aspirated, and fresh complete medium was introduced. The colonies were cultured for a period of 7 days, with the medium being renewed every 2 days. The colonies were washed with PBS, followed by fixation using a solution of methanol and acetic acid (3:1 v/v) for 5 min. Subsequently, they were stained with crystal violet (0.05% w/v in 4% paraformaldehyde) for 30 min. The excess crystal violet stain was washed away with distilled water until a clear background was obtained, and the samples were left to air-dry at room temperature. The colonies were photographed, and the captured images were analyzed using ImageJ software to determine the count of stained colonies. In this experiment, RT served as the positive control.

H23 cells [4] = assay: Colony formation assay; type: cell-based, human; settings: H23, 25 nM, 24 h treatment then 7 days growth
Procedure: as §1

H292 cells [5] = assay: Colony formation assay; type: cell-based, human; settings: H292, 25 nM, 24 h treatment then 7 days growth
Procedure: as §1

BEAS2B cells = assay: MTT cell viability assay, normal cells; type: cell-based, human; settings: for IC50: BEAS2B normal cells, 24 h treatment, MTT
A549 cells [6] = assay: Proliferation assay (MTT); type: cell-based, human
Procedure: (§2) An MTT assay was employed to evaluate the antiproliferative impact of the right-half RT analog, DH_32, over a period of three consecutive days. The human NSCLC cells lines A549, H23, and H292 were seeded at a cell density of 2 × 10^3 cells per well in a 96-well plate. The cells were exposed to low concentrations (0, 25, 50, and 100 nM) of DH_32 at various time points (0 h, 24 h, 48 h, and 72 h) and then incubated under 5% CO2 at 37 °C. Subsequently, the cell viability was assessed using an MTT assay at 0 h, 24 h, 48 h, and 72 h. The percentage of cell proliferation was determined by dividing the optical density (OD) of the cells at each time point by the OD of the non-treated control cells. In this experiment, RT served as the positive control.

H23 cells [7] = assay: Proliferation assay (MTT); type: cell-based, human; settings: H23, 24 h, 25 nM
Procedure: as §2

H292 cells [8] = assay: Proliferation assay (MTT); type: cell-based, human; settings: H292, 24 h, 25 nM
Procedure: as §2

A549 cells [9] = assay: Nuclear staining assay (Hoechst 33342/PI); type: cell-based, human; settings: A549, 0.5 μM, 24 h; for percentage of apoptosis: Hoechst 33342; for percentage of dead cells: PI staining
Procedure: (§3) The assessment of apoptosis and dead cell counts was performed through costaining with Hoechst 33342 and propidium iodide (PI). Human NSCLCs (1 × 10^4 cells per well) were seeded in a 96-well plate, incubated at 37 °C, and exposed to all right-half RT analogs at a concentration of 0.5 μM. After treatment, the cells were rinsed with PBS and subjected to co-staining with Hoechst 33342 (10 μg/mL) and propidium iodide (PI) (0.02 μg/mL) for 30 min at 37 °C. Fluorescence microscopy (Olympus 1X51 with a DP70 digital camera, Tokyo, Japan) was utilized to observe the fragmented nuclei indicative of apoptotic cells stained with Hoechst 33342 and the positive PI staining for dead cells. Subsequently, the percentages of apoptosis and dead cells were calculated. In this experiment, RT at a concentration of 0.5 μM served as the positive control.

H23 cells [10] = assay: Nuclear staining assay (Hoechst 33342/PI); type: cell-based, human; settings: H23, 0.5 μM, 24 h; for percentage of apoptosis: Hoechst 33342; for percentage of dead cells: PI staining
Procedure: as §3

H292 cells [11] = assay: Nuclear staining assay (Hoechst 33342/PI); type: cell-based, human; settings: H292, 0.5 μM, 24 h; for percentage of apoptosis: Hoechst 33342; for percentage of dead cells: PI staining
Procedure: as §3

[12] = A549, 48 h, DH_32 25, 50, and 100 nM, RT 25 and 50 nM

Q: Which results are given for CC=C(C)C(=O)OCC1c2c(c(O)c(C)c3c2OCO3)CC2C3C4=C(CC(C(C#N)N12)N3C)C(=O)C(C)=C(OC)C4=O (centres unmarked) [RT, Renieramycin T]?
A: β-catenin level by immunofluorescence [1]: unaltered level of β-catenin; IC50 [2]: 13.7 ± 0.33 µM; colony formation inhibition rate (A549 cells [3]): 72.58 ± 0.07%; colony formation inhibition rate (H23 cells [4]): 58.75 ± 0.01%; colony formation inhibition rate (H292 cells [5]): 32.22 ± 0.05%; IC50 (BEAS2B cells): 1.18 ± 0.02 µM; proliferation rate (A549 cells [6]; A549, 24 h, 50 and 100 nM): did not affect the proliferation; proliferation rate (A549 cells [6]; [12]): did not exhibit any effect; proliferation rate (H23 cells [7]): did not exhibit any change in their proliferation rate; proliferation rate (H292 cells [8]): did not exhibit any change in their proliferation rate; percentage of apoptosis (A549 cells [9]): 24.95 ± 1.32%; percentage of dead cells (A549 cells [9]): 21.60 ± 0.99%; percentage of apoptosis (H23 cells [10]): 33.41 ± 0.53%; percentage of dead cells (H23 cells [10]): 31.15 ± 0.48%; percentage of apoptosis (H292 cells [11]): 29.63 ± 0.47%; percentage of dead cells (H292 cells [11]): 26.31 ± 1.04%

Q: Which “β-catenin level by immunofluorescence” value [1] does the source give for COC1=C(C)C(=O)C2=C(C1=O)[C@@H]1CN(Cc3ccc4ccccc4c3)[C@@H](C#N)[C@H](C2)N1C [DH_32, (1R,4R,5S)-9-methoxy-8,11-dimethyl-3-(naphthalen-2-ylmethyl)-7,10-dioxo-1,2,3,4,5,6,7,10-octahydro-1,5-epiminobenzo[d]azocine-4-carbonitrile] here?
A: decrease in the fluorescence signal of β-catenin

Q: What about the “selectivity index (SI)” value ([2]; DP cells versus A549) of the same compound?
A: 8.42

Q: And the “selectivity index (SI)” value ([2]; DP cells versus H23)?
A: 16.51

Q: And the “selectivity index (SI)” value ([2]; DP cells versus H292)?
A: 23.40

Q: What about the IC50 ([2]; Homo sapiens, Human dermal papilla cell) of the same compound?
A: 34.2 ± 1.22 µM

Q: What about the inhibition at 0.025 µM (A549 cells [3]; Homo sapiens, read-out: colony formation inhibition rate) of the same compound?
A: 90.83 ± 0.1%

Q: And the inhibition at 0.025 µM (H23 cells [4]; Homo sapiens, NCI-H23, read-out: colony formation inhibition rate)?
A: 78.49 ± 0.08%

Q: And the inhibition at 0.025 µM (H292 cells [5]; Homo sapiens, NCI-H292, read-out: colony formation inhibition rate)?
A: 79.74 ± 0.14%

Q: What about the “selectivity index (SI)” value (BEAS2B cells; BEAS2B cells versus A549) of the same compound?
A: 1.25

Q: And the “selectivity index (SI)” value (BEAS2B cells; BEAS2B cells versus H23)?
A: 2.44

Q: What about the “selectivity index (SI)” value (BEAS2B cells; BEAS2B cells versus H292) of the same compound?
A: 3.47

Q: And the IC50 (BEAS2B cells; Homo sapiens, BEAS-2B)?
A: 5.06 ± 0.22 µM

Q: What about the proliferation rate (A549 cells [6]; A549, 24 h, 50 and 100 nM) of the same compound?
A: decreased proliferation rate

Q: What about the proliferation rate (A549 cells [6]; [12]) of the same compound?
A: significant reduction in cell proliferation

Q: What about the proliferation rate (H23 cells [7]) of the same compound?
A: substantial reduction in the proliferation rate

Q: And the proliferation rate (H292 cells [8])?
A: substantial reduction in the proliferation rate

Q: What about the percentage of apoptosis (A549 cells [9]) of the same compound?
A: 29.33 ± 0.51%

Q: And the “percentage of dead cells” value (A549 cells [9])?
A: 23.38 ± 0.96%

Q: And the percentage of apoptosis (H23 cells [10])?
A: 39.29 ± 1.88%

Q: And the “percentage of dead cells” value (H23 cells [10])?
A: 35.07 ± 1.67%

Q: And the percentage of apoptosis (H292 cells [11])?
A: 34.13 ± 0.97%

Q: And the “percentage of dead cells” value (H292 cells [11])?
A: 29.82 ± 1.26%
